Values belong to the compound of their own block, whether it stands above or below them. Where a SMILES comes first, the peptide text is derived from it. [ ]: non-standard residue; d: D form. The star is where a group is joined. Boc = CC(C)(C)OC(=O)*; OBn = c1ccc(CO*)cc1; For = O=C*
How the values were obtained:
[1] = target: T1, Substance-P receptor (Cavia porcellus, UniProt P30547); assay: Displacement of specific binding of [3H]SP to tachykinin receptor 1 from the isolated guinea pig tracheal strips
[2] = target: T1, Substance-P receptor; assay: In vitro inhibitory concentration that gave 50% displacement of specific binding of [3H]SP to Tachykinin receptor 1 from the isolated guinea pig tracheal strips; No inhibition at 10E-4 M.

T1 sequence (P30547 whole entry): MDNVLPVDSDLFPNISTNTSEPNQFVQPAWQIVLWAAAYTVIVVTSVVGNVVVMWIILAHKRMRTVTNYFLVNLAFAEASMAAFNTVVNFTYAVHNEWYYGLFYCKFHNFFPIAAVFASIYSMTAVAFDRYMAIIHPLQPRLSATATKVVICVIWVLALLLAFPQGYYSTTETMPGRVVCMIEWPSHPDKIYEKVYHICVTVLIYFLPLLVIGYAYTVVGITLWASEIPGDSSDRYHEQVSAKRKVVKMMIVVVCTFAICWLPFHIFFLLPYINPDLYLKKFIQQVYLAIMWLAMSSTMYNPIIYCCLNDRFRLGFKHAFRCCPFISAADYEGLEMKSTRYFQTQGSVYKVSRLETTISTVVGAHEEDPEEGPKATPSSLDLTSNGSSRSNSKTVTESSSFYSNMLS

SMILES: CC(C)(C)OC(=O)N[C@@H](CCC(N)=O)C(=O)N[C@H](Cc1c[nH]c2ccccc12)C(=O)N[C@@H](Cc1ccccc1)C(N)=O
IC50 [1]: 38700 nM

SMILES: CC(C)(C)OC(=O)N[C@@H](CCC(N)=O)C(=O)N[C@H](Cc1cn(C=O)c2ccccc12)C(=O)NCC(=O)OCc1ccccc1
IC50 [2]: Not Active

SMILES: CC(C)(C)OC(=O)N[C@@H](CCC(N)=O)C(=O)N[C@H](Cc1cn(C=O)c2ccccc12)C(=O)N1CCC[C@H]1C(=O)OCc1ccccc1
IC50 [2]: Not Active

SMILES: NC(=O)CC[C@H](NC(=O)OCc1ccccc1)C(=O)N[C@@H](CCC(N)=O)C(=O)N[C@H](Cc1c[nH]c2ccccc12)C(=O)O
IC50 [1]: > 100000 nM

SMILES: CC(C)(C)OC(=O)N[C@H](Cc1c[nH]c2ccccc12)C(=O)N[C@H](Cc1c[nH]c2ccccc12)C(=O)N[C@@H](Cc1ccccc1)C(=O)OCc1ccccc1
IC50 [1]: > 100000 nM

SMILES: O=C(N[C@@H](Cc1ccccc1)C(=O)N[C@H](Cc1c[nH]c2ccccc12)C(=O)N[C@H](Cc1c[nH]c2ccccc12)C(=O)OCc1ccccc1)OCc1ccccc1
IC50 [1]: 100000 nM

SMILES: NC(=O)CC[C@H](NC(=O)[C@H](CCC(N)=O)NC(=O)[C@H]1CCCN1)C(=O)O
IC50 [1]: > 100000 nM

SMILES: CC(C)(C)OC(=O)N[C@@H](CCC(N)=O)C(=O)N[C@H](Cc1cn(C=O)c2ccccc12)C(=O)N[C@@H](Cc1ccccc1)C(=O)O
IC50 [1]: > 100000 nM

SMILES: O=C1CC[C@@H](C(=O)N[C@H](Cc2c[nH]c3ccccc23)C(=O)N[C@@H](Cc2ccccc2)C(=O)O)N1
IC50 [1]: > 100000 nM

SMILES: O=C(N[C@H](Cc1c[nH]c2ccccc12)C(=O)N[C@@H](Cc1ccccc1)C(=O)N[C@H](Cc1c[nH]c2ccccc12)C(=O)O)OCc1ccccc1
IC50 [1]: 23800 nM

SMILES: NC(=O)CC[C@H](NC(=O)[C@@H]1CCC(=O)N1)C(=O)N[C@H](Cc1c[nH]c2ccccc12)C(=O)O
IC50 [1]: > 100000 nM

SMILES: NC(=O)[C@@H](Cc1c[nH]c2ccccc12)NC(=O)[C@H](Cc1ccccc1)NC(=O)[C@@H](Cc1c[nH]c2ccccc12)NC(=O)OCc1ccccc1
IC50 [1]: > 100000 nM

SMILES: CC(C)(C)OC(=O)N1CCC[C@@H]1C(=O)N[C@@H](CCC(N)=O)C(=O)N[C@@H](CCC(N)=O)C(N)=O
IC50 [1]: > 100000 nM

SMILES: CC(C)[C@H](NC(=O)[C@@H](Cc1cn(C=O)c2ccccc12)NC(=O)[C@H](CCC(N)=O)NC(=O)OC(C)(C)C)C(=O)OCc1ccccc1
IC50 [2]: Not Active

SMILES: O=C(N[C@H](Cc1c[nH]c2ccccc12)C(=O)N[C@@H](Cc1ccccc1)C(=O)N[C@H](Cc1c[nH]c2ccccc12)C(=O)OCc1ccccc1)OCc1ccccc1
IC50 [1]: 10000 nM

SMILES: O=C(N[C@@H](Cc1ccccc1)C(=O)N[C@H](Cc1c[nH]c2ccccc12)C(=O)N[C@H](Cc1c[nH]c2ccccc12)C(=O)O)OCc1ccccc1
IC50 [1]: > 100000 nM

SMILES: CC(C)(C)OC(=O)N[C@@H](CCC(N)=O)C(=O)N[C@@H](Cc1ccccc1)C(=O)N[C@@H](Cc1ccccc1)C(=O)OCc1ccccc1
IC50 [1]: 1000 nM

SMILES: NC(=O)CC[C@H](NC(=O)[C@H]1CCCN1C(=O)OCc1ccccc1)C(=O)N[C@@H](CCC(N)=O)C(=O)OCc1ccccc1
IC50 [1]: 10000 nM

SMILES: CC(C)(C)OC(=O)N[C@@H](CCC(N)=O)C(=O)N[C@H](Cc1c[nH]c2ccccc12)C(=O)N[C@@H](Cc1ccccc1)C(=O)O
IC50 [1]: > 100000 nM

SMILES: CC(C)(C)OC(=O)N1CCC[C@@H]1C(=O)N[C@@H](CCC(N)=O)C(=O)N[C@@H](CCC(N)=O)C(=O)OCc1ccccc1
IC50 [1]: 100000 nM

Now from value to compound:

IC50 [1]: 550 nM
SMILES: CC(C)(C)OC(=O)N[C@@H](CCC(N)=O)C(=O)N[C@H](Cc1c[nH]c2ccccc12)C(=O)N[C@@H](Cc1ccccc1)C(=O)OCc1ccccc1

IC50 [1]: 240 nM
SMILES: CN(C(=O)[C@@H](Cc1cn(C=O)c2ccccc12)NC(=O)[C@H](CCC(N)=O)NC(=O)OC(C)(C)C)[C@@H](Cc1ccccc1)C(=O)OCc1ccccc1

IC50 [1]: 420 nM
SMILES: CC(C)(C)OC(=O)NCC(=O)N[C@H](Cc1cn(C=O)c2ccccc12)C(=O)N[C@@H](Cc1ccccc1)C(=O)OCc1ccccc1

IC50 [1]: 380 nM
SMILES: CC(C)(C)OC(=O)N[C@@H](CCC(N)=O)C(=O)N[C@H](Cc1ccccc1)C(=O)N[C@@H](Cc1ccccc1)C(=O)OCc1ccccc1

IC50 [1]: 500 nM
SMILES: CC(C)(C)OC(=O)N[C@@H](CCC(N)=O)C(=O)N[C@H](Cc1cn(C=O)c2ccccc12)C(=O)N[C@@H](Cc1ccccc1)C(=O)OCCc1ccccc1

IC50 [1]: 790 nM
SMILES: CSCC[C@@H](NC(=O)[C@H](CCC(N)=O)NC(=O)OC(C)(C)C)C(=O)N[C@@H](Cc1ccccc1)C(=O)OCc1ccccc1

IC50 [1]: 770 nM
SMILES: CC(C)(C)OC(=O)N[C@@H](CCC(N)=O)C(=O)N[C@H](Cc1cn(C=O)c2ccccc12)C(=O)N[C@H](Cc1ccccc1)C(=O)OCc1ccccc1

IC50 [1]: 600 nM
SMILES: NC(=O)CC[C@H](NC(=O)[C@H](CCC(N)=O)NC(=O)[C@H]1CCCN1)C(=O)N[C@H](Cc1c[nH]c2ccccc12)C(=O)N[C@@H](Cc1ccccc1)C(=O)N[C@H](Cc1c[nH]c2ccccc12)C(=O)N[C@H](Cc1c[nH]c2ccccc12)C(=O)N[C@@H](Cc1ccccc1)C(N)=O

IC50 [1]: 450 nM
SMILES: CC(C)(C)OC(=O)N[C@@H](CCC(N)=O)C(=O)N[C@H](Cc1cn(C=O)c2ccccc12)C(=O)N1C(C(=O)c2ccccc2)CC[C@H]1C(=O)OCc1ccccc1 (stereo not given in full)

IC50 [1]: 1000 nM
SMILES: CC(C)(C)OC(=O)N[C@@H](CCC(N)=O)C(=O)N[C@H](Cc1cn(C=O)c2ccccc12)C(=O)N[C@@H](Cc1ccccc1)C(=O)OCc1ccc(Cl)cc1

IC50 [1]: 210 nM
SMILES: NC(=O)CC[C@H](N)C(=O)N[C@H](Cc1cn(C=O)c2ccccc12)C(=O)N[C@@H](Cc1ccccc1)C(=O)OCc1ccccc1

IC50 [1]: 260 nM
SMILES: CC(C)(C)OC(=O)N[C@@H](Cc1ccc(O)cc1)C(=O)N[C@H](Cc1cn(C=O)c2ccccc12)C(=O)N[C@@H](Cc1ccccc1)C(=O)OCc1ccccc1

IC50 [1]: 140 nM
SMILES: CC(C)(C)OC(=O)N[C@@H](CCC(N)=O)C(=O)N[C@H](Cc1cn(C=O)c2ccccc12)C(=O)N1Cc2ccccc2CC1C(=O)OCc1ccccc1 (stereo not given in full)

IC50 [1]: 1000 nM
SMILES: CC(C)C[C@@H](NC(=O)[C@H](CCC(N)=O)NC(=O)OC(C)(C)C)C(=O)N[C@@H](Cc1ccccc1)C(=O)OCc1ccccc1

IC50 [1]: 90 nM
SMILES: CC(C)(C)OC(=O)N[C@@H](CCC(N)=O)C(=O)N[C@H](Cc1cn(C=O)c2ccccc12)C(=O)N[C@@H](Cc1ccccc1)C(=O)OCc1ccccc1

IC50 [1]: 360 nM
SMILES: CC(C)(C)OC(=O)N[C@@H](CCC(N)=O)C(=O)N[C@@H](Cc1cn(C=O)c2ccccc12)C(=O)N[C@@H](Cc1ccccc1)C(=O)OCc1ccccc1

IC50 [1]: 400 nM
SMILES: CC(C)(C)OC(=O)N[C@@H](CCC(N)=O)C(=O)N[C@H](Cc1cn(C=O)c2ccccc12)C(=O)N[C@@H](Cc1ccccc1)C(=O)OCC1CCCCC1

IC50 [1]: 390 nM
SMILES: CC(C)(C)OC(=O)N[C@@H](CCC(N)=O)C(=O)N[C@H](Cc1cn(C=O)c2ccccc12)C(=O)N[C@@H](Cc1ccc(O)cc1)C(=O)OCc1ccccc1

IC50 [1]: 110 nM
SMILES: CC(C)(C)OC(=O)N[C@@H](CO)C(=O)N[C@H](Cc1cn(C=O)c2ccccc12)C(=O)N[C@@H](Cc1ccccc1)C(=O)OCc1ccccc1 (Boc-Ser-[dW](For)-Phe-OBn)

IC50 [1]: 110 nM
SMILES: C[C@@H](O)[C@H](NC(=O)OC(C)(C)C)C(=O)N[C@H](Cc1cn(C=O)c2ccccc12)C(=O)N[C@@H](Cc1ccccc1)C(=O)OCc1ccccc1 (Boc-Thr-[dW](For)-Phe-OBn)

From ChEMBL document CHEMBL1126059 (J Med Chem, 1992)
